Test results as given in patent publication US4518711A, “Conformationally constrained cyclic enkephalin analogs with delta receptor specificity” (Gibson-Stephens Institute, priority 1983, dated 1985).
Like-named read-outs stand apart in the source and are kept apart here. Where a SMILES comes first, the peptide text is derived from it. Bridges are numbered along the chain shown (N, C = ends). [ ]: non-standard residue; d: D form. dPen = CC(C)(S)[C@@H](N)C(=O)O

Key:
[1] = target: T1, mu receptors (rat brain membrane preparations) (Rattus norvegicus, UniProt P33535); experiment: Rat brain binding assay, displacement of [3H]naloxone
T1 construct: Whole brains with cerebellum removed were homogenized in 100 volumes of Tris-HCl buffer; from tissue; host or cells: rat whole brain (cerebellum removed) membrane homogenate

[2] = target: T2, delta receptors (rat brain membrane preparations) (Rattus norvegicus, UniProt P33533); experiment: Rat brain binding assay, displacement of [3H][D-Ala2, D-Leu5]enkephalin
T2 construct: Whole brains with cerebellum removed were homogenized in 100 volumes of Tris-HCl buffer; from tissue; host or cells: rat whole brain (cerebellum removed) membrane homogenate

[3] = target: T3, delta type opiate receptors (mouse vas deferens preparation) (Mus musculus, UniProt P32300); experiment: Mouse vas deferens (MVD) assay, inhibition of electrically stimulated contractions; assay type: cell-based; conditions: for IC50 (GPI)/IC50 (MVD): delta receptor selectivity, GPI versus MVD
T3 construct: The mouse vas deferens was prepared following the method of Hughes et al; from tissue; host or cells: mouse vas deferens
Procedure: These assays tested the degree of electrically stimulated contractions in the MVD and GPI tissues.
The mouse vas deferens was prepared following the method of Hughes et al. One pair of vasa deferentia was used in each experiment.

T1 sequence (P33535 whole entry): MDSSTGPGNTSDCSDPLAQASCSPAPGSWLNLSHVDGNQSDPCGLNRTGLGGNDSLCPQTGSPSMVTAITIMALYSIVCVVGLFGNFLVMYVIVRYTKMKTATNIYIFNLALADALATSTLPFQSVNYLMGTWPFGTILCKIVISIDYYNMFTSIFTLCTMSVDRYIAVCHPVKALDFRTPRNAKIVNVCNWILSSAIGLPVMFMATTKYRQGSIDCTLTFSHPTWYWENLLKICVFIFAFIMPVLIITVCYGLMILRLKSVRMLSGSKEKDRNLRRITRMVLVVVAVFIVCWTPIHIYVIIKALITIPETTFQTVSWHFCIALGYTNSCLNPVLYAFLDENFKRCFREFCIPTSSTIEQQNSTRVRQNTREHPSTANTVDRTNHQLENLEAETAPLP
T2 sequence (P33533 whole entry): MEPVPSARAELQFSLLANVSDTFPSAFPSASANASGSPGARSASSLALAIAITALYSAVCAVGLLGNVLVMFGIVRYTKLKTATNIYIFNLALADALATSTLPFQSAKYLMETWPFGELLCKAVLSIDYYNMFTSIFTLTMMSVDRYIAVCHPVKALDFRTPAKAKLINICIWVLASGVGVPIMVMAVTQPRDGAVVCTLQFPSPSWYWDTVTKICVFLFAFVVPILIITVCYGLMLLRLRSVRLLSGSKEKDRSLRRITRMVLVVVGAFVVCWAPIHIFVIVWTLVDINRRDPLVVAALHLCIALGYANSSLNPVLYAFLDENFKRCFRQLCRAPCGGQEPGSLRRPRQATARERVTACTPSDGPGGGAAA
T3 sequence (P32300 whole entry): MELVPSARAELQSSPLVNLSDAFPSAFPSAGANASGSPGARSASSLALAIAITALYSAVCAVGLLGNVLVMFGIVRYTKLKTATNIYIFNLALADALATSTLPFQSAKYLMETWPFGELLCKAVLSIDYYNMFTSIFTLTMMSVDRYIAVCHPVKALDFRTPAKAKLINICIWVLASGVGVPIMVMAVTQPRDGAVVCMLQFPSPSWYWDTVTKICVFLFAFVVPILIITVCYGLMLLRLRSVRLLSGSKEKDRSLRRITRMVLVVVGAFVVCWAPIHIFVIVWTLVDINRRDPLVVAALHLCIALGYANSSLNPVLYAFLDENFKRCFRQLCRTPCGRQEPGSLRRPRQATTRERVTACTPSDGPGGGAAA

Row | Compound | IC50 [1] [nM] | IC50 [2] [nM] | IC50 (NAL)/IC50 (DADLE) ([2]; delta receptor selectivity in rat brain binding) | IC50 [3] [nM] | IC50 (GPI)/IC50 (MVD) [3] | IC50 ([3]; electrically stimulated contractions, mouse vas deferens, read-out: IC50 (nM) MVD) [nM]
1 | C[C@@H](O)[C@H](NC(=O)[C@@H]1CSSC(C)(C)[C@@H](NC(=O)[C@@H](N)Cc2ccc(O)cc2)C(=O)NCC(=O)N[C@@H](Cc2ccccc2)C(=O)N1)C(=O)O (H-Y[dPen]GFCT-OH; disulfide 2-5) | 146 | 5.2 | 28.2 | 0.6 | 380 | –
2 | Oc1ccc2c3c1O[C@H]1[C@@H](O)C=C[C@H]4[C@@H](C2)NCC[C@@]341 [Normorphine] | – | – | – | – | 0.17 | 540
3 | CSCC[C@H](NC(=O)[C@H](Cc1ccccc1)NC(=O)CNC(=O)[C@@H](C)NC(=O)[C@@H](N)Cc1ccc(O)cc1)C(N)=O [[D-Ala^2, Met^5]Enkephalinamide, [D-Ala^2, Met^5]Enkephalinamide] | – | – | – | 3.75 | – | –
4 | CC(C)C[C@H](NC(=O)[C@H](Cc1ccccc1)NC(=O)CNC(=O)[C@@H](CO)NC(=O)[C@@H](N)Cc1ccc(O)cc1)C(=O)N[C@H](C(=O)O)[C@@H](C)O [[D-Ser^2, Leu^5, Thr^6]Enkephalin, [D-Ser^2, Leu^5, Thr^6]enkephalin] | 88 ± 6 | 5.73 | – | – | – | –
5 | CC(C)C[C@H](NC(=O)[C@H](Cc1ccccc1)NC(=O)CNC(=O)[C@H](NC(=O)[C@@H](N)Cc1ccc(O)cc1)[C@H](C)O)C(=O)N[C@H](C(=O)O)[C@@H](C)O [[D-Thr^2, Leu^5, Thr^6]Enkephalin, [D-Thr^2, Leu^5, Thr^6]enkephalin] | 36.3 | 6.4 | – | – | – | –
